In US20050176813A1, “Novel chalcone derivatives and uses thereof” (priority 2002, published 2005):
Where two headings read alike, the source gives them in different places.

What was measured:
Kv1.3 = Kv1.3 (Homo sapiens, UniProt P22001); experiment: Kv1.3 channel block, estimated Kd (Table 1); type: binding; conditions: for Block phasic or not: Kv1.3
[1] = test system: human peripheral blood lymphocytes; experiment: Proliferation test, [3H]-thymidine incorporation assay, anti-CD3 stimulated; type: cell-based; conditions: Homo sapiens, Lymphocyte; anti-CD3 stimulation, 48 h; read-out: EC50, suppression of proliferation of human peripheral blood lymphocytes
Method: Proliferation Test [^3H]-Thymidine Incorporation Assay
Resting peripheral blood mononuclear cells from healthy volunteers were seeded at 2×10^5 cells per well in medium (RPMI 1640 supplemented 10% fetal calf serum, 2 mM glutamine, 1 mM sodium pyruvate, 1% nonessential amino acids, 100 units/ml penicillin, 100 μg/ml streptomycin and 50 μM β-mercaptoethanol) in flat-bottom 96 well plates (final volume 200 μl). Cells pre-incubated with drug (60 min), were stimulated with 5 ng/ml anti-CD3 Ab) for 48 h. [^3H]-Thymidine (1 μCi per well) was added for the last 6 h. Cells were harvested onto glass fibre filters and radioactivity measured in a scintillation counter. All experiments were done in triplicate. Results are reported as normalised for maximum [^3H]-thymidine incorporation for controls.

[2] = Cytotoxicity in vitro (remark in Table 1, summary of Table 2); type: cell-based; conditions: cells not given
Method: Jurkat E6-1 and MEL were seeded at 5×10^5 cells/ml in twelve-well plates. Drug (100 nM, 1 μM, 2.5 μM and 10 μM) was added in a final DMSO concentration of 0.1%. After 48 h of incubation, cells were harvested by sucking them off the plates. Cells were centrifuged, resuspended in 0.5 ml PBS containing 1 μg/ml propidium iodide (PI), and red fluorescence measured on a FACScan flow cytometer (Becton Dickinson) after 20 min (10^4 cells of every sample being analyzed). The percentage of dead cells was determined by their PI uptake. Incubation with 20% DMSO served as a control for setting the gates of the flow cytometer for dead cells.

[3] = Kv1.3, end, read-out: Est. Kd, Kd end
[4] = Kv1.3, peak, read-out: Est. Kd, Kd peak

Kv1.3, sequence (P22001 whole entry): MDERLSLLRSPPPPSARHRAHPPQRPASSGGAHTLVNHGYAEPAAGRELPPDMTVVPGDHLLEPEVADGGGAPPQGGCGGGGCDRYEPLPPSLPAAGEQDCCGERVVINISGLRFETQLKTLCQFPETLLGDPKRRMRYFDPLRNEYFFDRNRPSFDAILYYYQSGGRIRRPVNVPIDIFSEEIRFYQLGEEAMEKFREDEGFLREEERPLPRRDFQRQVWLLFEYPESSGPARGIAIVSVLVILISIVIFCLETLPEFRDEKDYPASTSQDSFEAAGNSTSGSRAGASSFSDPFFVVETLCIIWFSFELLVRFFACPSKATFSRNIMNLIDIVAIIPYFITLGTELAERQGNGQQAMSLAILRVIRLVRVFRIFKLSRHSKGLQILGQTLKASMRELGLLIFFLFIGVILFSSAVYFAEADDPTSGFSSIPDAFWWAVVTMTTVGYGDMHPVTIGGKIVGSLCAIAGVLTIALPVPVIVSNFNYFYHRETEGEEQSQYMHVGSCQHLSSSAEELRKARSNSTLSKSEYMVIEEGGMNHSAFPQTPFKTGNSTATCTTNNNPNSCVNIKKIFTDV

SMILES | Kd (Kv1.3; [3]) [µM] | Kd (Kv1.3; [4]) [µM] | melting point [°C] | other results
COc1c(C(=O)CCc2ccccc2)c(O)c(OC)c2occc12 [Example 2] | 0.3 | 0.8 |  | 
COc1c(O)c(C(=O)CCc2ccccc2)c(OC)c2c1OCC2 [Example 3] |  | 2 |  | 
CCCOc1ccc(/C=C/C(=O)c2c(O)c(OC)c3occc3c2OC)cc1 [Example 4] |  | 45 | 74 to 75 | Block phasic or not (Kv1.3): not phasic
COc1c(C(=O)/C=C/c2ccc(-c3ccccc3)cc2)c(O)c(OC)c2occc12 [Example 5] |  | 30 | 122 to 124 | Block phasic or not (Kv1.3): not phasic
CCN(CC)CCOc1ccc(/C=C/C(=O)c2c(O)c(OC)c3occc3c2OC)cc1 [Example 12] |  |  |  | Effect on Kv1.3 (Kv1.3; at 10 μM): 10 μM no effect Not tested against other channels
CCN(CC)c1ccc(/C=C/C(=O)c2c(O)c(OC)c3occc3c2OC)cc1 [Example 13] |  | 18 |  | Block phasic or not (Kv1.3): not phasic
COc1c(C(=O)/C=C/c2ccc([N+](=O)[O-])cc2)c(O)c(OC)c2occc12 [Example 29] |  |  |  | Behaviour of stocks in the Kv1.3 test (Kv1.3; stock solutions): Stocks precipitate
COc1c(C(=O)/C=C/c2c(F)c(F)c(F)c(F)c2F)c(O)c(OC)c2occc12 [Example 30] | 3.5 | 5 | 112 to 114 | 
COc1c(C(=O)/C=C/c2ccccc2C(F)(F)F)c(O)c(OC)c2occc12 [Example 31] |  | 40 | 150 to 151 | Block phasic or not (Kv1.3): not phasic
COc1c(C(=O)/C=C/c2cccc(Oc3ccccc3)c2)c(O)c(OC)c2occc12 [Example 34] |  |  |  | Effect on Kv1.3 (Kv1.3; at 5 μM): no effect at 5 μM Not tested against other channels
COc1c(C(=O)/C=C/c2cccc(Oc3ccc(Cl)cc3)c2)c(O)c(OC)c2occc12 [Example 35] |  |  | 107 to 108 | Effect on Kv1.3 (Kv1.3; at 5 μM): no effect at 5 μM Not tested against other channels
COc1c(C(=O)/C=C/c2cccc(Oc3cccc(C(F)(F)F)c3)c2)c(O)c(OC)c2occc12 [Example 36] |  |  |  | Effect on Kv1.3 (Kv1.3; at 5 μM): no effect at 5 μM Not tested against other channels
COc1c(C(=O)/C=C/c2cccc(Oc3ccc(C)cc3)c2)c(O)c(OC)c2occc12 [Example 37] |  |  |  | Effect on Kv1.3 (Kv1.3; at 1 μM): no effect at 1 μM Not tested against other channels
COc1c(C(=O)/C=C/c2cccc3ccccc23)c(O)c(OC)c2occc12 [Example 38] |  |  |  | Effect on Kv1.3 (Kv1.3; at 5 μM): no effect at 5 μM Not tested against other channels
COc1c(C(=O)/C=C/c2ccc3ccccc3c2)c(O)c(OC)c2occc12 [Example 39] |  |  |  | Effect on Kv1.3 (Kv1.3; at 5 μM): no effect at 5 μM Not tested against other channels
COc1c(C(=O)/C=C/C=C/c2ccccc2)c(O)c(OC)c2occc12 [Example 40] |  |  |  | Effect on Kv1.3 (Kv1.3; at 1 μM): no effect at 1 μM Not tested against other channels
COc1c(C(=O)/C=C/c2ccccc2C(=O)O)c(O)c(OC)c2occc12 [Example 41] |  |  |  | Effect on Kv1.3 (Kv1.3; at 20 μM): no effect at 20 μM Not tested against other channels
COc1c(C(=O)/C=C/C=C/c2ccc(N(C)C)cc2)c(O)c(OC)c2occc12 [Example 44] |  | 22 |  | Block phasic or not (Kv1.3): not phasic
COc1c(C(=O)/C=C/c2ccc(CO)o2)c(O)c(OC)c2occc12 [Example 46] |  |  | 120 to 121 | Effect on Kv1.3 (Kv1.3; at 20 μM): no effect at 20 μM Not tested against other channels
COc1c(C(=O)/C=C/c2c[nH]c3ccccc23)c(O)c(OC)c2occc12 [Example 47] |  |  | 138 to 140 | Effect on Kv1.3 (Kv1.3; at 5 μM): no effect at 5 μM Not tested against other channels
COc1c(C(=O)/C=C/c2cccn2C)c(O)c(OC)c2occc12 [Example 52] | 15 | 40 | 87 to 88 | 
COc1c(C(=O)/C=C/c2cccs2)c(O)c(OC)c2occc12 [Example 53] | 0.3 | 1.75 |  | Cytotoxicity (remark in Table 1) [2]: Cytotoxic Mp 129 Red needles
COc1c(C(=O)/C=C/c2sccc2C)c(O)c(OC)c2occc12 [Example 56] | 6 | 25 |  | 
COc1c(C(=O)/C=C/c2ccc([N+](=O)[O-])s2)c(O)c(OC)c2occc12 [Example 57] |  |  |  | Effect on Kv1.3 (Kv1.3; at 10 μM): No effect at 10 μM
COc1c(C(=O)/C=C/c2ccc3ccccc3n2)c(O)c(OC)c2occc12 [Example 58] |  |  |  | Effect on Kv1.3 (Kv1.3; at 5 μM): No effect at 5 μM
COc1c(C(=O)/C=C/c2ccccc2)c(OCc2ccccc2)c(OC)c2occc12 [Example 60] | 0.2 | 10 |  | 

Now from value to molecule, other results behind:

Kd (Kv1.3; [3]) [µM] | Kd (Kv1.3; [4]) [µM] | melting point [°C] | SMILES | other results
 | 35 | 180 to 181 | COc1c(C(=O)/C=C/c2ccc(NC(C)=O)cc2)c(O)c(OC)c2occc12 [Example 6] | Block phasic or not (Kv1.3): not phasic
 | 12 | 160 to 161 | COc1c(C(=O)/C=C/c2ccccc2Cl)c(O)c(OC)c2occc12 [Example 7] | Block phasic or not (Kv1.3): not phasic
 | 15 |  | COc1c(C(=O)/C=C/c2cccc(Cl)c2)c(O)c(OC)c2occc12 [Example 8] | Block phasic or not (Kv1.3): not phasic
 | 7 |  | COc1c(C(=O)/C=C/c2ccc(Cl)cc2)c(O)c(OC)c2occc12 [Example 9] | Block phasic or not (Kv1.3): not phasic
 | 20 | 182 to 183 | COc1c(C(=O)/C=C/c2cccc(C#N)c2)c(O)c(OC)c2occc12 [Example 10] | Block phasic or not (Kv1.3): not phasic
 | 12 | 196 to 198 | COc1c(C(=O)/C=C/c2ccc(C#N)cc2)c(O)c(OC)c2occc12 [Example 11] | Block phasic or not (Kv1.3): not phasic
1.5 | 10 |  | CCOc1ccc(/C=C/C(=O)c2c(O)c(OC)c3occc3c2OC)cc1 [Example 14] | 
12 | 90 |  | COc1c(C(=O)/C=C/c2ccccc2F)c(O)c(OC)c2occc12 [Example 15] | 
4 | 35 | 121 to 123 | COc1c(C(=O)/C=C/c2cccc(F)c2)c(O)c(OC)c2occc12 [Example 16] | 
1 | 8 |  | COc1c(C(=O)/C=C/c2ccc(F)cc2)c(O)c(OC)c2occc12 [Example 17] | 
0.9 | 10 |  | COc1c(C(=O)/C=C/c2ccc(O)cc2)c(O)c(OC)c2occc12 [Example 19] | 
 | 3 |  | COc1c(C(=O)/C=C/c2ccc(C(C)C)cc2)c(O)c(OC)c2occc12 [Example 20] | Block phasic or not (Kv1.3): not phasic
 | 2 |  | COc1c(C(=O)/C=C/c2ccccc2C)c(O)c(OC)c2occc12 [Example 21] | Block phasic or not (Kv1.3): not phasic
0.3 | 1.5 | 97 to 98 | COc1c(C(=O)/C=C/c2cccc(C)c2)c(O)c(OC)c2occc12 [Example 22] | 
0.1 | 1.5 |  | COc1c(C(=O)/C=C/c2ccc(C)cc2)c(O)c(OC)c2occc12 [Example 23] | EC50 [1]: 1500 nM
1 | 5 | 117 to 118 | COc1ccccc1/C=C/C(=O)c1c(O)c(OC)c2occc2c1OC [Example 25] | 
1.5 | 9 | 139 to 140 | COc1c(C(=O)/C=C/c2ccc3c(c2)OCO3)c(O)c(OC)c2occc12 [Example 26] | 
5 | 15 | 131 to 132 | COc1c(C(=O)/C=C/c2ccccc2[N+](=O)[O-])c(O)c(OC)c2occc12 [Example 27] | 
 |  | 97 to 98 | COc1c(C(=O)/C=C/c2cccc([N+](=O)[O-])c2)c(O)c(OC)c2occc12 [Example 28] | block (Kv1.3; Kv1.3, at 5 μM): 5-10% block at 5 μM
 | 40 |  | COc1c(C(=O)/C=C/c2cccc(C(F)(F)F)c2)c(O)c(OC)c2occc12 [Example 32] | Block phasic or not (Kv1.3): not phasic
4 | 10 |  | COc1c(C(=O)/C=C/c2ccc(C(F)(F)F)cc2)c(O)c(OC)c2occc12 [Example 33] | 
5 | 14 |  | COc1c(C(=O)/C=C/c2ccc(N(C)C)cc2)c(O)c(OC)c2occc12 [Example 42] | 
8 | 16 |  | COc1c(C(=O)/C=C/c2ccccc2O)c(O)c(OC)c2occc12 [Example 43] | 
4 | 20 |  | COc1c(C(=O)/C=C/c2ccco2)c(O)c(OC)c2occc12 [Example 45] | 
9 | 20 |  | COc1c(C(=O)/C=C/c2cccnc2)c(O)c(OC)c2occc12 [Example 48] | 
 | 20 |  | COc1c(C(=O)/C=C/c2ccncc2)c(O)c(OC)c2occc12 [Example 49] | Block phasic or not (Kv1.3): not phasic
 | 12 | 86 to 87 | COc1c(C(=O)/C=C/c2cccc(C)n2)c(O)c(OC)c2occc12 [Example 50] | Block phasic or not (Kv1.3): not phasic
9 | 30 |  | COc1c(C(=O)/C=C/c2ccc[nH]2)c(O)c(OC)c2occc12 [Example 51] | 
